# Laboratory results reported in patent US20180000085A1, “USE OF PICOLINAMIDE COMPOUNDS WITH FUNGICIDAL ACTIVITY” (DOW AGROSCIENCES LLC, priority 2014, published 2018).
# Experiments:
# Zymoseptoria tritici = assay: Leaf blotch of wheat (SEPTTR) disease control on wheat seedlings; format: in vivo; set-up: key to SEPTTR 1DP, HV activity at 100 ppm (% control rating) / SEPTTR 3DC, HV activity at 100 ppm (% control rating) / SEPTTR disease control, 1DP / SEPTTR disease control, 3DC / SEPTTR 1DP disease control rating, HV activity / SEPTTR 3DC disease control rating, HV activity / SEPTTR 3DC, LV activity at 125.1 g/H (% Control rating) / SEPTTR 1DP, LV activity at 125.1 g/H (% Control rating) / SEPTTR 1DP disease control rating, LV activity at 125.1 g/H / SEPTTR 3DC disease control rating, LV activity at 125.1 g/H / SEPTTR 3DC disease control rating, HV activity at 100 ppm / SEPTTR 1DP disease control rating, HV activity at 100 ppm / HV activity at 100 ppm SEPTTR 3DC (disease control rating) / HV activity at 100 ppm SEPTTR 1DP (disease control rating) / LV activity at 125.1 g/H SEPTTR 1DP (disease control rating) / LV activity at 125.1 g/H SEPTTR 3DC (disease control rating): A: > 80; B: ≤ 80; C: Not Tested; D: No Activity Observed in the Reported Assay; conditions: for SEPTTR 1DP disease control rating, HV activity / SEPTTR 3DC disease control rating, HV activity: HV application at 100 ppm
# Puccinia triticina = assay: Wheat brown rust (PUCCRT) disease control on wheat seedlings; format: in vivo; set-up: key to PUCCRT 3DC, HV activity at 100 ppm (% control rating) / PUCCRT disease control, 3DC / PUCCRT 1DP disease control rating, HV activity / PUCCRT 3DC disease control rating, HV activity / PUCCRT 3DC, LV activity at 125.1 g/H (% Control rating) / PUCCRT 1DP, LV activity at 125.1 g/H (% Control rating) / PUCCRT 3DC disease control rating, LV activity at 125.1 g/H / PUCCRT 1DP disease control rating, LV activity at 125.1 g/H / PUCCRT 3DC disease control rating, HV activity at 100 ppm / PUCCRT 1DP disease control rating, HV activity at 100 ppm / HV activity at 100 ppm PUCCRT 3DC (disease control rating) / LV activity at 125.1 g/H PUCCRT 1DP (disease control rating) / LV activity at 125.1 g/H PUCCRT 3DC (disease control rating): A: > 80; B: ≤ 80; C: Not Tested; D: No Activity Observed in the Reported Assay; conditions: for PUCCRT 1DP disease control rating, HV activity / PUCCRT 3DC disease control rating, HV activity: HV application at 100 ppm
# [1] = high volume application, 100 ppm, 1 day protectant
# [2] = high volume application, 100 ppm, 3 day curative
# [3] = low volume application, 125.1 g/H, 1 Day Protectant
# [4] = low volume application, 125.1 g/H, 3 Day Curative
# [5] = low volume application, 125.1 g/H, 1 day protectant
# [6] = low volume application, 125.1 g/H, 3 day curative
# [7] = 1 Day Protectant, wheat leaf blotch
# [8] = 3 Day Curative, wheat leaf blotch
# [9] = 1 Day Protectant, wheat brown rust
# [10] = 3 Day Curative, wheat brown rust
# [11] = HV activity at 100 ppm, 1 Day Protectant, wheat
# [12] = HV activity at 100 ppm, 3 Day Curative, wheat
# [13] = high volume application, 100 ppm, 1DP
# [14] = high volume application, 100 ppm, 3DC
smiles,measurement,setting,value
COc1ccnc(C(=O)NC(C)C(=O)OC(C)C(Oc2ccc(F)cc2)c2ccccc2)c1O (centres unmarked) [Cmpd 837],"SEPTTR 1DP disease control rating, HV activity at 100 ppm",Zymoseptoria tritici; [1],A (> 80)
same,"SEPTTR 3DC disease control rating, HV activity at 100 ppm",Zymoseptoria tritici; [2],A (> 80)
same,"PUCCRT 1DP disease control rating, HV activity at 100 ppm",Puccinia triticina; [1],A (> 80)
same,"PUCCRT 3DC disease control rating, HV activity at 100 ppm",Puccinia triticina; [2],A (> 80)
COc1ccnc(C(=O)NC(C)C(=O)OC(C)COC2CCCC2)c1OCOC(C)=O (centres unmarked) [Cmpd 534],"SEPTTR 1DP, LV activity at 125.1 g/H (% Control rating)",Zymoseptoria tritici; [3],D
same,"SEPTTR 3DC, LV activity at 125.1 g/H (% Control rating)",Zymoseptoria tritici; [4],A (> 80)
same,"PUCCRT 1DP, LV activity at 125.1 g/H (% Control rating)",Puccinia triticina; [3],D
same,"PUCCRT 3DC, LV activity at 125.1 g/H (% Control rating)",Puccinia triticina; [4],A (> 80)
CCC(CC)C(Oc1ccc(Cl)cc1Cl)C(C)OC(=O)C(CC(C)C)NC(=O)c1nccc(OC)c1OC(C)=O (centres unmarked) [Cmpd 689],"SEPTTR 1DP disease control rating, LV activity at 125.1 g/H",Zymoseptoria tritici; [5],D
same,"SEPTTR 3DC disease control rating, LV activity at 125.1 g/H",Zymoseptoria tritici; [6],B (≤ 80)
same,"PUCCRT 1DP disease control rating, LV activity at 125.1 g/H",Puccinia triticina; [5],D
same,"PUCCRT 3DC disease control rating, LV activity at 125.1 g/H",Puccinia triticina; [6],D
COc1ccnc(C(=O)N[C@H](C)C(=O)O[C@H](C)[C@@H](Oc2ccccc2)c2ccccc2)c1O [Cmpd 352],"SEPTTR 1DP disease control rating, HV activity",Zymoseptoria tritici; [7],D
same,"SEPTTR 3DC disease control rating, HV activity",Zymoseptoria tritici; [8],B (≤ 80)
same,"PUCCRT 1DP disease control rating, HV activity",Puccinia triticina; [9],D
same,"PUCCRT 3DC disease control rating, HV activity",Puccinia triticina; [10],D
CCC(CC)[C@@H](Oc1ccc(-c2ccccc2)cc1)[C@H](C)OC(=O)[C@H](C)NC(=O)c1nccc(OC)c1OCOC(C)=O [Cmpd 596],"SEPTTR 1DP, LV activity at 125.1 g/H (% Control rating)",Zymoseptoria tritici; [3],A (> 80)
same,"SEPTTR 3DC, LV activity at 125.1 g/H (% Control rating)",Zymoseptoria tritici; [4],B (≤ 80)
same,"PUCCRT 1DP, LV activity at 125.1 g/H (% Control rating)",Puccinia triticina; [3],A (> 80)
same,"PUCCRT 3DC, LV activity at 125.1 g/H (% Control rating)",Puccinia triticina; [4],B (≤ 80)
COc1ccnc(C(=O)N[C@@H](C)C(=O)O[C@@H](C)[C@@H](Cc2ccccc2)OCC(C)C)c1O [Cmpd 343],"SEPTTR 1DP disease control rating, HV activity",Zymoseptoria tritici; [7],A (> 80)
same,"SEPTTR 3DC disease control rating, HV activity",Zymoseptoria tritici; [8],B (≤ 80)
same,"PUCCRT 1DP disease control rating, HV activity",Puccinia triticina; [9],A (> 80)
same,"PUCCRT 3DC disease control rating, HV activity",Puccinia triticina; [10],A (> 80)
CCCOC(CC)C(Oc1ccccc1)C(C)OC(=O)C(CC)NC(=O)c1nccc(OC)c1O (centres unmarked) [Cmpd 296],"SEPTTR disease control, 1DP",Zymoseptoria tritici; [11],B (≤ 80)
same,"SEPTTR disease control, 3DC",Zymoseptoria tritici; [12],B (≤ 80)
same,"SEPTTR 1DP disease control rating, HV activity",Zymoseptoria tritici; [7],B (≤ 80)
same,"SEPTTR 3DC disease control rating, HV activity",Zymoseptoria tritici; [8],B (≤ 80)
same,"SEPTTR 1DP, HV activity at 100 ppm (% control rating)",Zymoseptoria tritici; [13],B (≤ 80)
same,"SEPTTR 3DC, HV activity at 100 ppm (% control rating)",Zymoseptoria tritici; [14],B (≤ 80)
same,"PUCCRT disease control, 1DP",Puccinia triticina; [11],B (≤ 80)
same,"PUCCRT disease control, 3DC",Puccinia triticina; [12],A (> 80)
same,"PUCCRT 1DP disease control rating, HV activity",Puccinia triticina; [9],B (≤ 80)
same,"PUCCRT 3DC disease control rating, HV activity",Puccinia triticina; [10],A (> 80)
same,"PUCCRT 1DP, HV activity at 100 ppm (% control rating)",Puccinia triticina; [13],B (≤ 80)
same,"PUCCRT 3DC, HV activity at 100 ppm (% control rating)",Puccinia triticina; [14],A (> 80)
COc1ccnc(C(=O)N[C@@H](CC(C)C)C(=O)O[C@@H](C)[C@H](Oc2ccccc2)C(C)C)c1O [Cmpd 813],"SEPTTR 1DP disease control rating, HV activity at 100 ppm",Zymoseptoria tritici; [1],D
same,"SEPTTR 3DC disease control rating, HV activity at 100 ppm",Zymoseptoria tritici; [2],B (≤ 80)
same,"PUCCRT 1DP disease control rating, HV activity at 100 ppm",Puccinia triticina; [1],B (≤ 80)
same,"PUCCRT 3DC disease control rating, HV activity at 100 ppm",Puccinia triticina; [2],D
CC[C@H](OC)[C@@H](Oc1ccccc1)[C@H](C)OC(=O)[C@H](C)NC(=O)c1nccc(OC)c1O [Cmpd 403],"SEPTTR 1DP disease control rating, LV activity","Zymoseptoria tritici; Low volume application at 125.1 g/H, 1 Day Protectant, wheat leaf blotch",B (≤ 80)
same,"SEPTTR 3DC disease control rating, LV activity","Zymoseptoria tritici; Low volume application at 125.1 g/H, 3 Day Curative, wheat leaf blotch",A (> 80)
same,"PUCCRT 1DP disease control rating, LV activity","Puccinia triticina; Low volume application at 125.1 g/H, 1 Day Protectant, wheat brown rust",A (> 80)
same,"PUCCRT 3DC disease control rating, LV activity","Puccinia triticina; Low volume application at 125.1 g/H, 3 Day Curative, wheat brown rust",A (> 80)
